Source: patent US9714240B2 (PharmAkea, Inc., priority 2013, dated 2017)

Biological target: T1, human autotaxin (Homo sapiens, UniProt Q13822)
T1 construct: Conditioned media is collected from confluent Hep3B cells and concentrated 20-fold; endogenous in cells; host or cells: Hep3B human hepatocellular carcinoma cells (concentrated conditioned medium)
Experiment: Human Autotaxin Assay (choline release from LPC)
Format: biochemical
Conditions: ATX in concentrated conditioned media from Hep3B cells, substrate LPC 14:0 100 uM, absorbance at 555 nm
Protocol: ATX activity is assayed in concentrated conditioned media from Hep3B human hepatocellular carcinoma cells by measuring the amount of choline released from the substrate, lysophosphatidylcholine (LPC) as it is cleaved to LPA. Conditioned media is collected from confluent Hep3B cells and concentrated 20-fold using Centriprep-30 filter devices (Millipore). To assay for autotaxin inhibition, 10-20 μL of the concentrated conditioned media is incubated with 2.5 μL of a test compound in DMSO and 72.5-82.5 μL lyso-PLD buffer (100 mM Tris pH 9, 500 mM NaCl, 5 mM MgCl2, 5 mM CaCl2, 0.05% Triton X-100 in the presence or absence of 0.2% fatty-acid-free human serum albumin) for 15 min at 37° C. After the 15 min incubation, 5 ul of 2 mM LPC (14:0; Avanti Polar Lipids Cat#855575C) diluted in lyso-PLD buffer is added for a final concentration of 100 uM and the incubation continues for 1.5-3 hours at 37° C. 100 μl of a color mix containing 4.5 mM 4-aminoantipyrine, 2.7 mM N-ethyl-N-(2-hydroxy-3-sulfopropyl)-m-toluidine, 21 units/ml horseradish peroxidase and 3 units/ml choline oxidase in 50 mM Tris, pH 8, 4.5 mM MgCl2 is added and the incubation continued for 15 minutes at room temperature before reading the absorbance at 555 nm.

IC50 [nM]	SMILES
≤ 500	N#C/C(=C\c1cn(Cc2ccc(Cl)nc2)c2cc(Cl)ccc12)c1ccc(C(=O)O)cc1 [Compound 1-16, 4-[(Z)-2-[6-chloro-1-[(6-chloro-3-pyridyl)methyl]indol-3-yl]-1-cyano-vinyl]benzoic Acid]
500 to 10000	CCOc1ncc(Cn2cc(/C=C(\C#N)c3ccc(C(=O)O)cc3)c3ccc(Cl)cc32)s1 [Compound 1-17, 4-[(Z)-2-[6-chloro-1-[(2-ethoxythiazol-5-yl)methyl]indol-3-yl]-1-cyano-vinyl]benzoic Acid]
500 to 10000	CCCc1noc(Cn2cc(/C=C(\C#N)c3ccc(C(=O)O)cc3)c3ccc(Cl)cc32)n1 [Compound 1-18, 4-[(Z)-2-[6-chloro-1-[(3-propyl-1,2,4-oxadiazol-5-yl)methyl]indol-3-yl]-1-cyano-vinyl]benzoic Acid]
500 to 10000	N#C/C(=C\c1cn(Cc2cc(Cl)cc(Cl)c2)c2cc(Cl)ccc12)c1ccc(C(=O)O)cc1 [Compound 1-19, 4-[(Z)-2-[6-chloro-1-[(3,5-dichlorophenyl)methyl]indol-3-yl]-1-cyano-vinyl]benzoic Acid]
> 10000	N#C/C(=C\c1cn(Cc2cc(C(F)(F)F)cc(C(F)(F)F)c2)c2cc(Cl)ccc12)c1ccc(C(=O)O)cc1 [Compound 1-20, 4-[(Z)-2-[1-[[3,5-bis(trifluoromethyl)phenyl]methyl]-6-chloro-indol-3-yl]-1-cyano-vinyl]benzoic Acid]
500 to 10000	N#C/C(=C\c1cn(Cc2ccc(C(F)(F)F)cc2)c2cc(Cl)ccc12)c1ccc(C(=O)O)cc1 [Compound 1-21, 4-[(Z)-2-[6-chloro-1-[[4-(trifluoromethyl)phenyl]methyl]indol-3-yl]-1-cyano-vinyl]benzoic Acid]
> 10000	N#C/C(=C\c1cn(CCc2ccc(F)cc2)c2cc(Cl)ccc12)c1ccc(C(=O)O)cc1 [Compound 1-22, 4-[(Z)-2-[6-chloro-1-[2-(4-fluorophenyl)ethyl]indol-3-yl]-1-cyano-vinyl]benzoic Acid]
> 10000	N#C/C(=C\c1cn(CCCc2ccc(F)cc2)c2cc(Cl)ccc12)c1ccc(C(=O)O)cc1 [Compound 1-23, 4-[(Z)-2-[6-chloro-1-[3-(4-fluorophenyl)propyl]indol-3-yl]-1-cyano-vinyl]benzoic Acid]
500 to 10000	N#C/C(=C\c1cn(CCCc2ccccc2)c2cc(Cl)ccc12)c1ccc(C(=O)O)cc1 [Compound 1-24, 4-[(Z)-2-[6-chloro-1-(3-phenylpropyl)indol-3-yl]-1-cyano-vinyl]benzoic Acid]
500 to 10000	Cn1cc(Cn2cc(/C=C(\C#N)c3ccc(C(=O)O)cc3)c3ccc(Cl)cc32)cn1 [Compound 1-25, 4-[(Z)-2-[6-chloro-1-[(1-methylpyrazol-4-yl)methyl]indol-3-yl]-1-cyano-vinyl]benzoic Acid]
≤ 500	COc1ccc(Cn2cc(/C=C(\C#N)c3ccc(C(=O)O)cc3)c3ccc(Cl)cc32)cn1 [Compound 1-26, 4-[(Z)-2-[6-chloro-1-[(6-methoxy-3-pyridyl)methyl]indol-3-yl]-1-cyano-vinyl]benzoic Acid]
≤ 500	N#C/C(=C\c1cn(Cc2ccc(C(F)(F)F)nc2)c2cc(Cl)ccc12)c1ccc(C(=O)O)cc1 [Compound 1-27, 4-[(Z)-2-[6-chloro-1-[[6-(trifluoromethyl)-3-pyridyl]methyl]indol-3-yl]-1-cyano-vinyl]benzoic Acid]
≤ 500	COc1ccc2c(/C=C(\C#N)c3ccc(C(=O)O)cc3)cn(Cc3ccc(OC)nc3)c2c1 [Compound 1-29, 4-[(Z)-1-cyano-2-[6-methoxy-1-[(6-methoxy-3-pyridyl)methyl]indol-3-yl]vinyl]benzoic Acid]
500 to 10000	N#C/C(=C\c1cn(Cc2ccc(OC(F)(F)F)cc2)c2cc(Cl)ccc12)c1ccc(C(=O)O)cc1 [Compound 1-45, (Z)-4-(2-(6-chloro-1-(4-(trifluoromethoxy)benzyl)-1H-indol-3-yl)-1-cyanovinyl)benzoic Acid]
> 10000	N#C/C(=C\c1cn(Cc2ccc(F)cc2C(F)(F)F)c2cc(Cl)ccc12)c1ccc(C(=O)O)cc1 [Compound 1-46, (Z)-4-(2-(6-chloro-1-(4-fluoro-2-(trifluoromethyl)benzyl)-1H-indol-3-yl)-1-cyanovinyl)benzoic Acid]
500 to 10000	N#C/C(=C\c1cn(Cc2ccc(OC(F)F)cc2F)c2cc(Cl)ccc12)c1ccc(C(=O)O)cc1 [Compound 1-47, (Z)-4-(2-(6-chloro-1-(4-(difluoromethoxy)-2-fluorobenzyl)-1H-indol-3-yl)-1-cyanovinyl)benzoic Acid]

IC50 [nM]	SMILES
> 10000	N#C/C(=C\c1cn(Cc2ccc(OCC(F)(F)F)nc2)c2cc(Cl)ccc12)c1ccc(C(=O)O)cc1 [Compound 1-48, (Z)-4-(2-(6-chloro-1-((6-(2,2,2-trifluoroethoxy)pyridin-3-yl)methyl)-1H-indol-3-yl)-1-cyanovinyl)benzoic Acid]
500 to 10000	N#C/C(=C\c1cn(Cc2ccc(F)cc2)c2c(F)c(Cl)ccc12)c1ccc(C(=O)O)cc1 [Compound 1-49, (Z)-4-(2-(6-chloro-7-fluoro-1-(4-fluorobenzyl)-1H-indol-3-yl)-1-cyanovinyl)benzoic Acid]
≤ 500	COc1ccc(Cn2cc(/C=C(\C#N)c3ccc(C(=O)O)cc3)c3ccc(Cl)c(F)c32)cn1 [Compound 1-50]
≤ 500	N#C/C(=C\c1cn(Cc2cnc(C(F)(F)F)s2)c2c(F)c(Cl)ccc12)c1ccc(C(=O)O)cc1 [Compound 1-52]
≤ 500	CCOc1ccc2c(/C=C(\C#N)c3ccc(C(=O)O)cc3)cn(Cc3ccc(F)cc3)c2c1 [Compound 1-65, (Z)-4-(1-cyano-2-(6-ethoxy-1-(4-fluorobenzyl)-1H-indol-3-yl)vinyl)benzoic Acid]
≤ 500	N#C/C(=C\c1cn(Cc2ccc(F)cc2)c2cc([N+](=O)[O-])ccc12)c1ccc(C(=O)O)cc1 [Compound 1-66, (Z)-4-(1-cyano-2-(1-(4-fluorobenzyl)-6-nitro-1H-indol-3-yl)vinyl)benzoic Acid]
500 to 10000	CS(=O)(=O)c1ccc2c(/C=C(\C#N)c3ccc(C(=O)O)cc3)cn(Cc3ccc(F)cc3)c2c1 [Compound 1-67, (Z)-4-(1-cyano-2-(1-(4-fluorobenzyl)-6-(methylsulfonyl)-1H-indol-3-yl)vinyl)benzoic Acid]
≤ 500	N#C/C(=C\c1cn(Cc2ccc(F)cc2)c2cc(OC(F)(F)F)ccc12)c1ccc(C(=O)O)cc1 [Compound 1-75, (Z)-4-(1-cyano-2-(1-(4-fluorobenzyl)-6-trifluoromethoxy-1H-indol-3-yl)vinyl)benzoic Acid]
≤ 500	COc1ccc(Cn2cc(/C=C(\C#N)c3ccc(C(=O)O)cc3)c3ccc(OC(F)(F)F)cc32)cn1 [Compound 1-76]
≤ 500	N#C/C(=C\c1cn(Cc2cnc(C(F)(F)F)s2)c2cc(OC(F)(F)F)ccc12)c1ccc(C(=O)O)cc1 [Compound 1-77, (Z)-4-(1-cyano-2-(6-(trifluoromethoxy)-1-((2-(trifluoromethyl)thiazol-5-yl)methyl)-1H-indol-3-yl)vinyl)benzoic Acid]
≤ 500	N#C/C(=C\c1cn(Cc2ccc(F)cc2)c2cc(Cl)ccc12)c1ccc(C(=O)O)nc1 [Compound 2-2, 5-[(Z)-2-[6-chloro-1-[(4-fluorophenyl)methyl]indol-3-yl]-1-cyano-vinyl]pyridine-2-carboxylic Acid]
≤ 500	COc1ccc(Cn2cc(/C=C(\C#N)c3ccc(C(=O)O)nc3)c3ccc(Cl)cc32)cn1 [Compound 2-3, 5-[(Z)-2-[6-chloro-1-[(6-methoxy-3-pyridyl)methyl]indol-3-yl]-1-cyano-vinyl]pyridine-2-carboxylic Acid]
500 to 10000	N#C/C(=C\c1cn(Cc2ccccc2)c2cc(Cl)ccc12)c1cccc(C(=O)O)c1 [Compound 2-4, 3-[(Z)-2-(1-benzyl-6-chloro-indol-3-yl)-1-cyano-vinyl]benzoic Acid]
≤ 500	N#C/C(=C\c1cn(Cc2ccc(F)cc2)c2cc(Cl)ccc12)c1ccc(CC(=O)O)cc1 [Compound 2-25, (Z)-2-(4-(2-(6-chloro-1-(4-fluorobenzyl)-1H-indol-3-yl)-1-cyanovinyl)phenyl)acetic Acid]
500 to 10000	N#C/C(=C\c1cn(Cc2ccc(F)cc2)c2cc(Cl)ccc12)c1cccc(C(=O)O)c1 [Compound 2-26]
